Measured values published in US6646001B2, “Use of non-steroidal anti-inflammatory agents in combination with prostaglandin FP receptor agonists to treat glaucoma and ocular hypertension” (Alcon Manufacturing, Ltd., priority 1997, dated 2003).

Test: nepafenac concentration in ocular tissues of rabbits following a single topical dose
Assay type: in vivo
Conditions: topical ocular administration of 0.3% nepafenac, simple formulation without penetration enhancers
Procedure: The estimated concentration within the anterior chamber following topical ocular administration of 0.3% nepafenac to rabbits is 24 μM (see FIGS. 1 and 2). This concentration, achieved using a simple formulation without penetration enhancers, is in excess of the parent compounds' COX I and COX II IC50s. This enhanced bioavailability provides a significant advantage and is unexpected over other non-steroidal anti-inflammatory drugs as well as amide derivatives of non-steroidal anti-inflammatory drugs. The compounds disclosed in the '034 patent, the contents of which are incorporated herein by reference, are ester and amide derivatives of 3-benzoylphenylacetic acid.

estimated concentration within the anterior chamber: 24 µM
Compound: NC(=O)Cc1cccc(C(=O)c2ccccc2)c1N [nepafenac, 2-Amino-3-benzoyl-phenylacetamide]
